Experimental data from article PMC9225722, “Synthesis and biological evaluation of thieno[3,2-c]pyrazol-3-amine derivatives as potent glycogen synthase kinase 3β inhibitors for Alzheimer’s disease” (Journal of Enzyme Inhibition and Medicinal Chemistry, 2022).

Assays:
SH-SY5Y cells = test: Neuronal neurite outgrowth assay; assay type: cell-based, human; conditions: 10 μM, 72 h, compared with RA (10 μM)
Description: Differentiated SH-SY5Y cells express neurogenesis-related markers, including growth-associated protein 43 (GAP43), the N-myc gene as well as neuronal polarity marker microtubule-associated protein 2 (MAP-2). GAP43 is an intrinsic determinant of neuronal development and plasticity which regulates axon growth and regeneration[68]^,[69]. N-myc is indispensable to normal neurogenesis in the expansion of progenitor cell populations. MAP-2 regulates neuronal development, structural stability and synaptic plasticity through the formation of axonal and dendritic processes[71]^,[72]. Inhibition of GSK-3β could induce neurogenesis and promote the expressions of the neurogenesis-related markers. Firstly, we used SH-SY5Y cells to study the effect of 16b on neurite outgrowth, using retinoic acid (RA) as a positive control. After incubating with 16b (10 μM) or RA (10 μM) for 72 h, the morphology of differentiated neuronal neurite outgrowth were obtained.
Figure 8. (A) Effect of 16b (10 μM) on neurite outgrowth (72 h). Red arrows indicated cells bearing neurites. […]
SH-SY5Y cells (5 × 10^3) were planted in 96-well plates and cultivated at 37 °C for 24 h. […] After the SH-SY5Y cells were cultivated for 24 h, total RNA was extracted, and quantitative RT-PCR was performed according to the previously reported method.

GSK-3β = GSK-3β (Homo sapiens, UniProt P49841); test: GSK-3β kinase assay (calliper mobility shift assay); assay type: biochemical; conditions: mean ± SD from two separate experiments; calliper mobility shift assay
Sequence of GSK-3β (P49841 whole entry): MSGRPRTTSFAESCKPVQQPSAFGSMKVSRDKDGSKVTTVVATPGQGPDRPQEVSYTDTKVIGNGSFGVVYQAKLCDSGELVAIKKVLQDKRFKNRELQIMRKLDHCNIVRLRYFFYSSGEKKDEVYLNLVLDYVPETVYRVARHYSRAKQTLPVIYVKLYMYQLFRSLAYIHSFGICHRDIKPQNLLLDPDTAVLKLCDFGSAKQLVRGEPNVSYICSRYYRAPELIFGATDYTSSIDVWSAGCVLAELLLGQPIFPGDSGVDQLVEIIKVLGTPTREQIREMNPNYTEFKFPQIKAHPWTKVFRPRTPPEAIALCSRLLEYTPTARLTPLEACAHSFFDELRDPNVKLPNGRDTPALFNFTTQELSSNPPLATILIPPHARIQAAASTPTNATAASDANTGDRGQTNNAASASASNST

IC50 (GSK-3β): 3.1 ± 0.1 nM
SMILES: CC(C)C(=O)Nc1n[nH]c2cc(-c3cccnc3)sc12 [Compound 16b, N-(5-(pyridin-3-yl)-1H-thieno[3,2-c]pyrazol-3-yl)isobutyramide]
neurite outgrowth of SH-SY5Y cells (SH-SY5Y cells): substantial ability in inducing SH-SY5Y cells neurite outgrowth
